# Results reported in ChEMBL document CHEMBL3393004, “Insights on the role of boron containing moieties in the design of new potent and efficient agonists targeting the β2 adrenoceptor” (Bioorg Med Chem Lett, 2015).
# Columns and labels:
# [1] = target: T1, Beta-2 adrenergic receptor (Cavia porcellus, UniProt Q8K4Z4); assay: Agonist activity at adrenergic beta2 receptor in Hartley guinea pig tracheal ring at basal tone assessed as bronchorelaxation activity
# [2] = target: T1, Beta-2 adrenergic receptor; assay: Agonist activity at adrenergic beta2 receptor in Hartley guinea pig tracheal ring assessed as bronchorelaxation activity against histamine-induced contraction; parameters: species or system Trachea
# [3] = target: Beta-2 adrenergic receptor (Cavia porcellus) (UniProt Q8K4Z4); assay: Agonist activity at adrenergic beta2 receptor in Hartley guinea pig tracheal ring assessed as bronchorelaxation activity against histamine-induced contraction relative to isoproterenol; conditions: Trachea
# Chain of Beta-2 adrenergic receptor (Cavia porcellus) (Q8K4Z4 whole entry, looked up): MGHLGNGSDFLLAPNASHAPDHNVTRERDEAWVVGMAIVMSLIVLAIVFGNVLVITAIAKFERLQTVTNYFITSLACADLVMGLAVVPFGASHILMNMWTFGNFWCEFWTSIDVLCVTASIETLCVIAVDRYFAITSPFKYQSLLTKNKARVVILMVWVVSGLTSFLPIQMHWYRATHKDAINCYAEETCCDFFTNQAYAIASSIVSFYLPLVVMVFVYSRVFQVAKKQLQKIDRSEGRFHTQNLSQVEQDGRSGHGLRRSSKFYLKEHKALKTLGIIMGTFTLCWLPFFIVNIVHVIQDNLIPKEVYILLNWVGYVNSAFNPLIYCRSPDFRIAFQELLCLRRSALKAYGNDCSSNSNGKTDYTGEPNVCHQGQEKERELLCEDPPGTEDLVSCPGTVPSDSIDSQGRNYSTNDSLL
# T1 sequence (Q8K4Z4 whole entry): as the sequence (Q8K4Z4 whole entry, looked up) above
Kd [1] [nM],Kd [2] [nM],Efficacy [3] [%],EC50 [2] [nM],Compound
25.1,17.8,–,–,CC(C)NCC(O)c1ccc(O)c(O)c1 (configuration not stated) [ISOPROTERENOL]
5.13,28.2,94,≤ 280,CC(C)C[B-]1(O)OCc2cc([C@@H](O)C[NH2+]C(C)(C)C)ccc2O1 (some centres not stated)
–,–,68,–,CC(C)(C)NCC(O)c1ccc(O)c(CO)c1 (configuration not stated)
